Measured values reported in patent US20240308996A1, “PYRIDOPYRIDINES AND DERIVATIVES THEREOF AS SELECTIVE KINASE INHIBITORS” (University of Sharjah, priority 2023, published 2024).

Key:
LOX IMVI = assay: NCI-60 cell line panel: LOX IMVI; format: cell-based; conditions: Melanoma; for IC50: Homo sapiens; for TGI: total growth inhibition
Method: It was carried out at the NCI, Bethesda, MD, USA, utilizing their standard protocol.

FMS = FMS (Homo sapiens, UniProt P07333); assay: Kinase IC50, FMS
PDGFRα = PDGFRα (Homo sapiens, UniProt P16234); assay: Kinase IC50, PDGFRα
Flt4 = Flt4 (Homo sapiens, UniProt P35916); assay: Kinase IC50, Flt4
TrkA = TrkA (Homo sapiens, UniProt P04629); assay: Kinase IC50, TrkA
Flt3 = Flt3 (Homo sapiens, UniProt P36888); assay: Kinase IC50, Flt3
Sequence of Flt3 (P36888 27-993): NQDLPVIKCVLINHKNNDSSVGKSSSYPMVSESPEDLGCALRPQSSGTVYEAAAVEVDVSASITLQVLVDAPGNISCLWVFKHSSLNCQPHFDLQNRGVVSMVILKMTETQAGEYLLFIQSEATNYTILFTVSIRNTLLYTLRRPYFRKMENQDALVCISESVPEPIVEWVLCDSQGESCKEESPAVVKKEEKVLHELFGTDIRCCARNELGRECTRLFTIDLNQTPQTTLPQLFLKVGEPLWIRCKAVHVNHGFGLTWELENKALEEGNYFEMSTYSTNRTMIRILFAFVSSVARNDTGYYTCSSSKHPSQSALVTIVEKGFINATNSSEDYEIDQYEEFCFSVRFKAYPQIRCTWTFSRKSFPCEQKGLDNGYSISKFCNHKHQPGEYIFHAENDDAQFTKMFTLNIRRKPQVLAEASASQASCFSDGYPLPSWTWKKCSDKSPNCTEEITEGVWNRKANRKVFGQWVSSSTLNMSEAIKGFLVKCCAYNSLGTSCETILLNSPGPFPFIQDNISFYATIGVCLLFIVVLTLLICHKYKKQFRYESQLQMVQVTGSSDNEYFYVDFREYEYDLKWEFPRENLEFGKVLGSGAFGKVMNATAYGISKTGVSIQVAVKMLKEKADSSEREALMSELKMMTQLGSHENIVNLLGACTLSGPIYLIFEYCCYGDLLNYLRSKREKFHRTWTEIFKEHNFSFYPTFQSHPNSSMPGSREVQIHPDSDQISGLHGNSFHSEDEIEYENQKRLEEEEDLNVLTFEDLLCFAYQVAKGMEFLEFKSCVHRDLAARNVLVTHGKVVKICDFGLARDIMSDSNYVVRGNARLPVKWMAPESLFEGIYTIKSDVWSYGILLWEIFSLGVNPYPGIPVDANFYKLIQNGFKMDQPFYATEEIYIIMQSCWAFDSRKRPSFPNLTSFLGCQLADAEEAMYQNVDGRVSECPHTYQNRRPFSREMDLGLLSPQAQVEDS

Sequence of FMS (P07333 20-972): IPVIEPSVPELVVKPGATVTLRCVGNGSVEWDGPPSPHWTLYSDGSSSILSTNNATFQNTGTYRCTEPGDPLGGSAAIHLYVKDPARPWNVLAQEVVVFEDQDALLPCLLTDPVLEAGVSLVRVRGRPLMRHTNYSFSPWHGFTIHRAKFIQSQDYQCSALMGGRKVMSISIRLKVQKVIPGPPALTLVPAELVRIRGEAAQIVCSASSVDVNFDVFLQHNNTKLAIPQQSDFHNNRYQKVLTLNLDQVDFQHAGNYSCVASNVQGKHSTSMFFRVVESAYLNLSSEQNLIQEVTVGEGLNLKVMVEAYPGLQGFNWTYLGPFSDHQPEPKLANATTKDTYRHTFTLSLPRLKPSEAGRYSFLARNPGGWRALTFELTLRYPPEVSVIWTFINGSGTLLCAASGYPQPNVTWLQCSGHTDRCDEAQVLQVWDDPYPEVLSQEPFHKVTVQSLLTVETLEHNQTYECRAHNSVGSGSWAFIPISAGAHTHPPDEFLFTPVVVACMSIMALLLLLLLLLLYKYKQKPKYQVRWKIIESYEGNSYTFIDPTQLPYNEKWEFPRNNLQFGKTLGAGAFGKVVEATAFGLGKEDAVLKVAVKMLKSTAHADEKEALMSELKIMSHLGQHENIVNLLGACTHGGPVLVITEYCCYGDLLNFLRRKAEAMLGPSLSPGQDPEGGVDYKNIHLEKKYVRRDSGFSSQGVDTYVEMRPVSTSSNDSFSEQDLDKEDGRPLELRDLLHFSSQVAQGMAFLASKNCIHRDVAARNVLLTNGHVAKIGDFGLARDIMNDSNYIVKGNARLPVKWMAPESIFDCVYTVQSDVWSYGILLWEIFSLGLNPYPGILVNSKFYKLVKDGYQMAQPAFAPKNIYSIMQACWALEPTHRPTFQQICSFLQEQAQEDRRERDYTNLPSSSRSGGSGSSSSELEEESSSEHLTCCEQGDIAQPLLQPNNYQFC
Sequence of Flt4 (P35916 25-1363): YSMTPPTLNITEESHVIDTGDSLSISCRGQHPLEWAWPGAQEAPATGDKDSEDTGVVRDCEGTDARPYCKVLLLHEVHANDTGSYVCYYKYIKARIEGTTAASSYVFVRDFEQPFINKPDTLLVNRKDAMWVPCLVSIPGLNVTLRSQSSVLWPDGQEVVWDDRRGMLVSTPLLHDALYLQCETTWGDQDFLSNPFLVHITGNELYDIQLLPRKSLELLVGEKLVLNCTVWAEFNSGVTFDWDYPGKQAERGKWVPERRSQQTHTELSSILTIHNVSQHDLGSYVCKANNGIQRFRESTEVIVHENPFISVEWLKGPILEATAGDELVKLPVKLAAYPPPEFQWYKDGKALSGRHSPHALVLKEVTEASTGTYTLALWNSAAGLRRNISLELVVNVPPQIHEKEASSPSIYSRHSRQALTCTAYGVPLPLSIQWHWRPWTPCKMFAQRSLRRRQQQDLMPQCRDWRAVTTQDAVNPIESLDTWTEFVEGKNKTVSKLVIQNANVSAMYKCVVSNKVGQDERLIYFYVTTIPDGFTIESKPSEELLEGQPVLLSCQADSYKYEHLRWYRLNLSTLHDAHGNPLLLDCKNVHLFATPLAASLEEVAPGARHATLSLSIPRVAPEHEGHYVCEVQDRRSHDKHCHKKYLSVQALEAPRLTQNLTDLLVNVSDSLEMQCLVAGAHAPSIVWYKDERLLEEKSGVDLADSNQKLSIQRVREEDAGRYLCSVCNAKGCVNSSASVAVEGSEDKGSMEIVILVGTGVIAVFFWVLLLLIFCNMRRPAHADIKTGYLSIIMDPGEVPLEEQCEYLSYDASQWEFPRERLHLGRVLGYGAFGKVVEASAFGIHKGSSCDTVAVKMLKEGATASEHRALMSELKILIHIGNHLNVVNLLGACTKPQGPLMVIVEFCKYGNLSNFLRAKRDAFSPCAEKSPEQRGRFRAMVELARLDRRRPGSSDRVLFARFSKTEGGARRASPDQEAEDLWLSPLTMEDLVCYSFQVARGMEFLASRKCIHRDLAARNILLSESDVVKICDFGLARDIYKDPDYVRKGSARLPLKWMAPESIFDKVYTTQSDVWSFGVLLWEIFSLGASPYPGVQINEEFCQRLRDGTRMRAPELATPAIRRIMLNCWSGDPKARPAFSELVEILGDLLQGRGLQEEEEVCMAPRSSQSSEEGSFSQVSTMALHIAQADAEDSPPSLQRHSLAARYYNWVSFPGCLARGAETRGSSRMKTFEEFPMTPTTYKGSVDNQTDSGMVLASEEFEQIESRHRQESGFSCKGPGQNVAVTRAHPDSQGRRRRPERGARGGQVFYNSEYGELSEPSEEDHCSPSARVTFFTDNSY
Sequence of PDGFRα (P16234 24-1089): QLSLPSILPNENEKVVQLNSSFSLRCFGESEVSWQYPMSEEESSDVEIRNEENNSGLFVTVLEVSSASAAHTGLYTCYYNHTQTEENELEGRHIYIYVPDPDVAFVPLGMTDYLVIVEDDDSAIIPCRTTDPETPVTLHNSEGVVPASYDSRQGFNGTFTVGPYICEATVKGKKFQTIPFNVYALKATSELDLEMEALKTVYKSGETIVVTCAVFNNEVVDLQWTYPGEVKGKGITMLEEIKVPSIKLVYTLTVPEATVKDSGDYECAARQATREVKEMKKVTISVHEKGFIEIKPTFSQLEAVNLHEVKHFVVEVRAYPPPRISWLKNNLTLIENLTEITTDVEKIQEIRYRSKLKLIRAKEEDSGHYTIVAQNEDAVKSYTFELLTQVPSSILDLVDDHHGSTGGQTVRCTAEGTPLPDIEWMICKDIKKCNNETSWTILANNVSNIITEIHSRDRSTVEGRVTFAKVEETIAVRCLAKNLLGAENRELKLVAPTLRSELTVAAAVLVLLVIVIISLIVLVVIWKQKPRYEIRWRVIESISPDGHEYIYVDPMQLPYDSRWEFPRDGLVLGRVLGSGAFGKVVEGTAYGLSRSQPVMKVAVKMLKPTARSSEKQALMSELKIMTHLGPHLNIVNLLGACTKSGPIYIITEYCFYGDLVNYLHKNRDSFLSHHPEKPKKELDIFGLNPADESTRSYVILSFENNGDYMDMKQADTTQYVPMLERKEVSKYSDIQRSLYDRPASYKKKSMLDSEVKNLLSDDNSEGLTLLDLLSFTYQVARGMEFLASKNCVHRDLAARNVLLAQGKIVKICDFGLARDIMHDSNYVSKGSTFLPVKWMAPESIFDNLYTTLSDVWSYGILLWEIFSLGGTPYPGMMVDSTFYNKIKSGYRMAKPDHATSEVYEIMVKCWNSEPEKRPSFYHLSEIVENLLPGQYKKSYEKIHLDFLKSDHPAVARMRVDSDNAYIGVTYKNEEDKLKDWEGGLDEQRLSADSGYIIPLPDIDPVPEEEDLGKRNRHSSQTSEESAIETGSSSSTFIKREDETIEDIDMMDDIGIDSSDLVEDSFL
Sequence of TrkA (P04629 33-796): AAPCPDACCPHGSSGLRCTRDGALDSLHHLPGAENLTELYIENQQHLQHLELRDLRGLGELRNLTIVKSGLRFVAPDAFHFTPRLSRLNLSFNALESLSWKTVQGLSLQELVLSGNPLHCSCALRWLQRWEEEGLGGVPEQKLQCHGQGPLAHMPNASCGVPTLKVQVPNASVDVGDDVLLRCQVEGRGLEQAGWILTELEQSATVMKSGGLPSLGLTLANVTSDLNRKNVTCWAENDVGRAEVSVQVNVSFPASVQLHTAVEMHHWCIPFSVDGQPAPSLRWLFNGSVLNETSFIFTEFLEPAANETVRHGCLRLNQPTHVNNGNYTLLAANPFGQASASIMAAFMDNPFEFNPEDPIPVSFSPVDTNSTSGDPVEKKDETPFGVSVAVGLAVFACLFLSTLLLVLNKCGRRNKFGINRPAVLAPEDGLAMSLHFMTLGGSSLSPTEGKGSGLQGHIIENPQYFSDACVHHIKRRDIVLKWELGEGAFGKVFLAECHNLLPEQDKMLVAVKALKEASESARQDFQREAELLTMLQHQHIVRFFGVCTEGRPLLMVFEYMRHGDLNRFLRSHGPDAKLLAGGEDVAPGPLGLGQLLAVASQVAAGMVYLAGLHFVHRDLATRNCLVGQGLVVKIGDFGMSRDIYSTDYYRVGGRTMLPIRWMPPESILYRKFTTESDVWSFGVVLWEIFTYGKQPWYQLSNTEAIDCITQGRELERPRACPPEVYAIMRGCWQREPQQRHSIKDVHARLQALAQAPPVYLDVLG

CCN1CCN(c2ccc(NC(=O)Nc3ccc(-c4cc(C(=O)NC(C)C)c5ncccc5n4)cc3)cc2C(F)(F)F)CC1 [Compound 13f, 2-(4-(3-(4-(4-Ethylpiperazin-1-yl)-3-(trifluoromethyl)phenyl)ureido)phenyl)-N-isopropyl-1,5-naphthyridine-4-carboxamide]
IC50 (LOX IMVI): 560 nM
TGI (LOX IMVI): 1050 nM

CC(C)NC(=O)c1cc(-c2ccc(NC(=O)Nc3ccc(N4CCN(C)CC4)c(C(F)(F)F)c3)cc2)nc2cccnc12 [Compound 13e, N-Isopropyl-2-(4-(3-(4-(4-methylpiperazin-1-yl)-3-(trifluoromethyl)phenyl)ureido)phenyl)-1,5-naphthyridine-4-carboxamide]
IC50 (LOX IMVI): 620 nM
TGI (LOX IMVI): 1150 nM

CCN1CCN(c2ccc(NC(=O)Nc3ccc(-c4cc(C(=O)NC)c5ncccc5n4)cc3)cc2C(F)(F)F)CC1 [Compound 13c, 2-(4-(3-(4-(4-Ethylpiperazin-1-yl)-3-(trifluoromethyl)phenyl)ureido)phenyl)-N-methyl-1,5-naphthyridine-4-carboxamide]
IC50 (LOX IMVI): 670 nM
TGI (LOX IMVI): 2660 nM
IC50 (FMS): 73.9 ± 0.2 nM
potency against FMS kinase compared with sorafenib (FMS): more potent than the known drug sorafenib
IC50 (PDGFRα): 992.3 ± 0.6 nM
IC50 (Flt4): 945.1 ± 0.5 nM
IC50 (TrkA): 958 nM
IC50 (Flt3): 483.6 ± 0.7 nM

CNC(=O)c1cc(-c2ccc(NC(=O)Nc3ccc(N4CCN(C)CC4)c(C(F)(F)F)c3)cc2)nc2cccnc12 [Compound 13b, N-Methyl-2-(4-(3-(4-(4-methylpiperazin-1-yl)-3-(trifluoromethyl)phenyl)ureido)phenyl)-1,5-naphthyridine-4-carboxamide]
IC50 (LOX IMVI): 660 nM
TGI (LOX IMVI): 24500 nM
IC50 (FMS): 21.5 ± 0.2 nM
potency against FMS kinase compared with sorafenib (FMS): more potent than the known drug sorafenib
potency and selectivity against FMS kinase (IC50 values) (FMS; against the most sensitive kinases): high potency and selectivity against FMS kinase
IC50 (PDGFRα): 972.4 ± 1.3 nM
IC50 (Flt4): 366.3 ± 0.5 nM
IC50 (Flt3): 362 ± 0.4 nM
